Values quoted from earlier work, collected in patent US10500190B1, “Sublingual or buccal administration of melatonin and/or valerian” (priority 2019, dated 2019).

Experiments:
[1] = not given; remark: listed apart in the source

variation of peak plasma concentrations (oral): over 20 fold | time after administration for the blood plasma concentration of melatonin to reach its peak (oral preparations): more than 30 minutes | solubility in water or other aqueous biological fluids [1]: poorly soluble
SMILES: COc1ccc2[nH]cc(CCNC(C)=O)c2c1 [melatonin, N-acetyl-5-methoxytrypta mine]
